From ChEMBL document CHEMBL2073877, “Functional characterization of the basolateral rat liver organic anion transporting polypeptide” (Hepatology, 1994)
Blank lines part the entries; values can stand above or below the molecule they belong to.

How the values were obtained:
[1] = target: T1, Solute carrier organic anion transporter family member 1A1 (Rattus norvegicus, UniProt P46720); assay: TP_TRANSPORTER: inhibition of Taurocholate uptake (Taurochorate: 20 uM, DCA: 200 uM) in Xenopus laevis oocytes; assay type: functional, cell-based; conditions: oocyte
T1 sequence (P46720 whole entry): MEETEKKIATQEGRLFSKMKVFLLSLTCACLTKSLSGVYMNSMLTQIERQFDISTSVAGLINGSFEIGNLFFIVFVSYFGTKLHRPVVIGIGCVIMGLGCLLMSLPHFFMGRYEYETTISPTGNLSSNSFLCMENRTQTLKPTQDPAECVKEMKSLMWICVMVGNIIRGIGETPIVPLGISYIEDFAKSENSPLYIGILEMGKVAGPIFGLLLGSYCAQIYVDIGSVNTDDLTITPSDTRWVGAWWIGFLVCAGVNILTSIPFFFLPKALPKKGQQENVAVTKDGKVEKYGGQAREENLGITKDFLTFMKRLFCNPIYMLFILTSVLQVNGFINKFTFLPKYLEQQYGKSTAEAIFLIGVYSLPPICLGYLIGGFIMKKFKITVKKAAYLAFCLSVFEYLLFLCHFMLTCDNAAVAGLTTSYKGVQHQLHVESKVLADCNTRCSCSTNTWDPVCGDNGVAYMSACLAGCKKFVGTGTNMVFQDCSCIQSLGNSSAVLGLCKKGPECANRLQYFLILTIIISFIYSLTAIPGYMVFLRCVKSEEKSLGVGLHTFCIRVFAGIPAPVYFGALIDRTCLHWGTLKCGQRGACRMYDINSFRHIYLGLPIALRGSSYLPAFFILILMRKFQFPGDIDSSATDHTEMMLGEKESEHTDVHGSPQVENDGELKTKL

[2] = target: T1, Solute carrier organic anion transporter family member 1A1; assay: TP_TRANSPORTER: inhibition of BSP uptake (BSP: 2 uM, DCA: 100 uM) in Xenopus laevis oocytes; assay type: functional, cell-based; conditions: oocyte
[3] = target: T1, Solute carrier organic anion transporter family member 1A1; assay: TP_TRANSPORTER: inhibition of BSP uptake (BSP: 1 uM, Bilirubin: 10 uM) in Xenopus laevis oocytes; assay type: functional, cell-based, Oocyte; conditions: probe BSP
[4] = target: T1, Solute carrier organic anion transporter family member 1A1; assay: TP_TRANSPORTER: inhibition of Taurocholate uptake (Taurochorate: 20 uM, GDCA: 200 uM) in Xenopus laevis oocytes; assay type: functional, cell-based; conditions: oocyte
[5] = target: T1, Solute carrier organic anion transporter family member 1A1; assay: TP_TRANSPORTER: inhibition of BSP uptake (BSP: 2 uM, GDCA: 100 uM) in Xenopus laevis oocytes; assay type: functional, cell-based; conditions: oocyte
[6] = target: T1, Solute carrier organic anion transporter family member 1A1; assay: TP_TRANSPORTER: inhibition of Taurocholate uptake (Taurochorate: 20 uM, TDCA: 200 uM) in Xenopus laevis oocytes; assay type: functional, cell-based; conditions: oocyte
[7] = target: T1, Solute carrier organic anion transporter family member 1A1; assay: TP_TRANSPORTER: inhibition of BSP uptake (BSP: 2 uM, TDCA: 100 uM) in Xenopus laevis oocytes; assay type: functional, cell-based; conditions: oocyte
[8] = target: T1, Solute carrier organic anion transporter family member 1A1; assay: TP_TRANSPORTER: inhibition of BSP uptake (BSP: 2 uM, UDCA: 100 uM) in Xenopus laevis oocytes; assay type: functional, cell-based; conditions: oocyte
[9] = target: T1, Solute carrier organic anion transporter family member 1A1; assay: TP_TRANSPORTER: inhibition of Taurocholate uptake (Taurochorate: 20 uM, UDCA: 200 uM) in Xenopus laevis oocytes; assay type: functional, cell-based; conditions: oocyte
[10] = target: T1, Solute carrier organic anion transporter family member 1A1; assay: TP_TRANSPORTER: inhibition of BSP uptake (BSP: 2 uM, Probenecid: 1000 uM) in Xenopus laevis oocytes; assay type: functional, cell-based, Oocyte; conditions: probe BSP
[11] = target: T1, Solute carrier organic anion transporter family member 1A1; assay: TP_TRANSPORTER: inhibition of BSP uptake (BSP: 2 uM, ICG: 100 uM) in Xenopus laevis oocytes; assay type: functional, cell-based, Oocyte; conditions: probe BSP, read-out: Activity
[12] = target: T1, Solute carrier organic anion transporter family member 1A1; assay: TP_TRANSPORTER: inhibition of Taurocholate uptake (Taurochorate: 20 uM, TCDC: 200 uM) in Xenopus laevis oocytes; assay type: functional, cell-based; conditions: oocyte
[13] = target: T1, Solute carrier organic anion transporter family member 1A1; assay: TP_TRANSPORTER: inhibition of BSP uptake (BSP: 2 uM, TCDC: 100 uM) in Xenopus laevis oocytes; assay type: functional, cell-based; conditions: oocyte
[14] = target: T1, Solute carrier organic anion transporter family member 1A1; assay: TP_TRANSPORTER: inhibition of BSP uptake (BSP: 2 uM, CDCA: 100 uM) in Xenopus laevis oocytes; assay type: functional, cell-based; conditions: oocyte
[15] = target: T1, Solute carrier organic anion transporter family member 1A1; assay: TP_TRANSPORTER: inhibition of Taurocholate uptake (Taurochorate: 20 uM, CDCA: 200 uM) in Xenopus laevis oocytes; assay type: functional, cell-based; conditions: oocyte
[16] = target: T1, Solute carrier organic anion transporter family member 1A1; assay: TP_TRANSPORTER: inhibition of BSP uptake (BSP: 2 uM, GCDCA: 100 uM) in Xenopus laevis oocytes; assay type: functional, cell-based; conditions: oocyte
[17] = target: T1, Solute carrier organic anion transporter family member 1A1; assay: TP_TRANSPORTER: inhibition of Taurocholate uptake (Taurochorate: 20 uM, GCDCA: 200 uM) in Xenopus laevis oocytes; assay type: functional, cell-based; conditions: oocyte
[18] = target: T1, Solute carrier organic anion transporter family member 1A1; assay: TP_TRANSPORTER: inhibition of BSP uptake (BSP: 2 uM, GC: 100 uM) in Xenopus laevis oocytes; assay type: functional, cell-based; conditions: oocyte
[19] = target: T1, Solute carrier organic anion transporter family member 1A1; assay: TP_TRANSPORTER: inhibition of Taurocholate uptake (Taurochorate: 20 uM, GC: 200 uM) in Xenopus laevis oocytes; assay type: functional, cell-based; conditions: oocyte
[20] = target: T1, Solute carrier organic anion transporter family member 1A1; assay: TP_TRANSPORTER: inhibition of BSP uptake (BSP: 2 uM, DIDS: 100 uM) in Xenopus laevis oocytes; assay type: functional, cell-based, Oocyte; conditions: probe BSP

SMILES: C[C@H](CCC(=O)O)[C@H]1CC[C@H]2[C@@H]3CC[C@@H]4C[C@H](O)CC[C@]4(C)[C@H]3C[C@H](O)[C@]12C [DEOXYCHOLIC ACID]
Activity [1]: inhibitor [(at a rough estimate) 5 % of control]
Activity [2]: inhibitor [(at a rough estimate) 15 % of control]

inhibition at 10 µM [3]: 43%
SMILES: C=CC1=C(C)/C(=C/c2[nH]c(Cc3[nH]c(/C=C4\NC(=O)C(C)=C4C=C)c(C)c3CCC(=O)O)c(CCC(=O)O)c2C)NC1=O [BILIRUBIN]

SMILES: C[C@H](CCC(=O)NCC(=O)O)[C@H]1CC[C@H]2[C@@H]3CC[C@@H]4C[C@H](O)CC[C@]4(C)[C@H]3C[C@H](O)[C@]12C [GLYCODEOXYCHOLATE]
Activity [4]: inhibitor [(at a rough estimate) 10 % of control]
Activity [5]: inhibitor [(at a rough estimate) 15 % of control]

SMILES: C[C@H](CCC(=O)NCCS(=O)(=O)O)[C@H]1CC[C@H]2[C@@H]3CC[C@@H]4C[C@H](O)CC[C@]4(C)[C@H]3C[C@H](O)[C@]12C [TAURODEOXYCHOLIC ACID]
Activity [6]: inhibitor [(at a rough estimate) 5 % of control]
Activity [7]: inhibitor [(at a rough estimate) 10 % of control]

SMILES: C[C@H](CCC(=O)O)[C@H]1CC[C@H]2[C@@H]3[C@@H](O)C[C@@H]4C[C@H](O)CC[C@]4(C)[C@H]3CC[C@]12C [URSODIOL]
Activity [8]: inhibitor [(at a rough estimate) 15 % of control]
Activity [9]: inhibitor [(at a rough estimate) 10 % of control]

inhibition at 1000 µM [10]: 74%
SMILES: CCCN(CCC)S(=O)(=O)c1ccc(C(=O)O)cc1 [PROBENECID]

inhibition at 100 µM [11]: 81%
SMILES: CC1(C)C(/C=C/C=C/C=C/C=C2\N(CCCCS(=O)(=O)O)c3ccc4ccccc4c3C2(C)C)=[N+](CCCCS(=O)(=O)[O-])c2ccc3ccccc3c21 [INDOCYANINE GREEN]

SMILES: C[C@H](CCC(=O)NCCS(=O)(=O)O)[C@H]1CC[C@H]2[C@@H]3[C@H](O)C[C@@H]4C[C@H](O)CC[C@]4(C)[C@H]3CC[C@]12C [TAUROCHENODEOXYCHOLATE]
Activity [12]: inhibitor [(at a rough estimate) 5 % of control]
Activity [13]: inhibitor [(at a rough estimate) 5 % of control]

SMILES: C[C@H](CCC(=O)O)[C@H]1CC[C@H]2[C@@H]3[C@H](O)C[C@@H]4C[C@H](O)CC[C@]4(C)[C@H]3CC[C@]12C [CHENODIOL]
Activity [14]: inhibitor [(at a rough estimate) 15 % of control]
Activity [15]: inhibitor [(at a rough estimate) 5 % of control]

SMILES: C[C@H](CCC(=O)NCC(=O)O)[C@H]1CC[C@H]2[C@@H]3[C@H](O)C[C@@H]4C[C@H](O)CC[C@]4(C)[C@H]3CC[C@]12C [GLYCOCHENODEOXYCHOLATE]
Activity [16]: inhibitor [(at a rough estimate) 10 % of control]
Activity [17]: inhibitor [(at a rough estimate) 5 % of control]

SMILES: C[C@H](CCC(=O)NCC(=O)O)[C@H]1CC[C@H]2[C@@H]3[C@H](O)C[C@@H]4C[C@H](O)CC[C@]4(C)[C@H]3C[C@H](O)[C@]12C [GLYCOCHOLIC ACID]
Activity [18]: inhibitor [(at a rough estimate) 45 % of control]
Activity [19]: inhibitor [(at a rough estimate) 40 % of control]

inhibition at 100 µM [20]: 52%
SMILES: O=S(=O)(O)c1cc(N=C=S)ccc1/C=C/c1ccc(NC=S)cc1S(=O)(=O)O
